Assay results published in patent publication US9982005B2, “Macrolides and methods of their preparation and use” (President and Fellows of Harvard College, priority 2013, dated 2018).
Values after ≈ are worked out from the molar mass of the structure shown. Where two headings read alike, the source gives them in different places.

Assays:
Assay type in all cases: cell-based
S. pneumoniae strains = assay: MIC against S. pneumoniae strains (Tables M7, M8); conditions: Streptococcus pneumoniae
Source text: CLSI standard procedures for broth dilution MIC determination were used. […] These genotypes can be constitutive or inducible.

A. baumannii strains = assay: MIC against A. baumannii strains (Table M8); conditions: Acinetobacter baumannii, BAA747, A. baumannii BAA747-1
S. aureus strains = assay: MIC against S. aureus strains (Table M7); conditions: Staphylococcus aureus
Source text: (§1) We have collected MIC data for a total of 50 novel macrolides that this platform has produced against over 21 unique strains of B. subtilis, E. coli, S. aureus, S. pneumoniae, and H. influenzae, including several multidrug-resistant strains, with a special focus on macrolide resistant mechanisms (vide supra). Azithromycin was included as a control macrolide. CLSI standard procedures for broth dilution MIC determination were used. […] These genotypes can be constitutive or inducible. The finding that C4-epi (unnatural) isomers of the “azaketolide” macrolide class have enhanced activities relative to C4 natural isomers is very exciting.

E. coli strains = assay: MIC against E. coli strains (Table M7); conditions: Escherichia coli, ATCC25922, E. coli ATCC 25922
Source text: as §1

K. pneumoniae strains = assay: MIC against K. pneumoniae strains (Table M8); conditions: Klebsiella pneumoniae, K. pneumoniae 10031
E. faecalis strains = assay: MIC against E. faecalis strains (Table M8); conditions: Enterococcus faecalis, E. faecalis 29212
H. influenzae strains = assay: MIC against H. influenzae strains (Table M8); conditions: Haemophilus influenzae
Source text: as §1

[1] = S. pneumoniae 160, read-out: MIC S. pneumonae (160)
[2] = S. pneumoniae 1509, read-out: MIC S. pneumoniae (1509)
[3] = S. pneumoniae 1533, read-out: MIC S. pneumoniae (1533)
[4] = S. pneumoniae 1537, read-out: MIC S. pneumoniae (1537)
[5] = S. pneumoniae 49619, read-out: MIC S. pneumoniae (49619)
[6] = ATCC29213, S. aureus ATCC 29213, read-out: MIC S. aureus (ATCC 29213)
[7] = S. aureus 183, read-out: MIC S. aureus (183)
[8] = S. aureus 506, read-out: MIC S. aureus (506)
[9] = S. aureus 1708, read-out: MIC S. aureus (1708)
[10] = USA300, S. aureus USA300, read-out: MIC S. aureus (USA300)
[11] = H. influenzae 49247, read-out: MIC H. influenzae (49247)
[12] = H. influenzae 49766, read-out: MIC H. influenzae (49766)

| Compound | MIC (S. pneumoniae strains; [1]) | MIC (S. pneumoniae strains; [2]) | MIC (S. pneumoniae strains; [3]) | MIC (S. pneumoniae strains; [4]) | MIC (S. pneumoniae strains; [5]) | MIC (A. baumannii strains) | MIC (S. aureus strains; [6]) | MIC (S. aureus strains; [7]) | MIC (S. aureus strains; [8]) | MIC (S. aureus strains; [9]) | MIC (S. aureus strains; [10]) | MIC (E. coli strains) | MIC (K. pneumoniae strains) | MIC (E. faecalis strains) | MIC (H. influenzae strains; [11]) | MIC (H. influenzae strains; [12]) |
| --- | --- | --- | --- | --- | --- | --- | --- | --- | --- | --- | --- | --- | --- | --- | --- | --- |
| CC[C@H]1OC(=O)[C@H](CC(=O)O)C(=O)[C@H](C)[C@@H](O[C@@H]2OC(C)CC(N(C)C)C2O)[C@](C)(OC)C[C@@H](C)CN[C@H](C)[C@H]2N(CCCCn3cc(-c4cccc(N)c4)nn3)C(=O)O[C@]12C (stereo partly shown) [FSM-56185] | > 32 µg/mL | > 32 µg/mL | > 32 µg/mL | > 32 µg/mL | > 32 µg/mL | > 32 µg/mL | > 32 µg/mL | > 32 µg/mL | > 32 µg/mL | > 32 µg/mL | > 32 µg/mL | > 32 µg/mL | > 32 µg/mL | > 32 µg/mL | > 32 µg/mL | > 32 µg/mL |
| CC[C@H]1OC(=O)[C@H](Cc2cn[nH]c2)C(=O)[C@H](C)[C@@H](O[C@@H]2OC(C)CC(N(C)C)C2O)[C@](C)(OC)C[C@@H](C)CN[C@H](C)[C@H]2N(CCCCn3cc(-c4cccc(N)c4)nn3)C(=O)O[C@]12C (stereo partly shown) [FSM-56192] | 8 µg/mL (≈ 8.95 µM) | > 32 µg/mL | > 32 µg/mL | > 32 µg/mL | 2 µg/mL (≈ 2.24 µM) | > 32 µg/mL | > 32 µg/mL | > 32 µg/mL | > 32 µg/mL | > 32 µg/mL | > 32 µg/mL | > 32 µg/mL | 16 µg/mL (≈ 17.9 µM) | 32 µg/mL (≈ 35.8 µM) | 8 µg/mL (≈ 8.95 µM) | 32 µg/mL (≈ 35.8 µM) |
| CC[C@H]1OC(=O)[C@H](Cc2cncs2)C(=O)[C@H](C)[C@@H](O[C@@H]2OC(C)CC(N(C)C)C2O)[C@](C)(OC)C[C@@H](C)CN[C@H](C)[C@H]2N(CCCCn3cc(-c4cccc(N)c4)nn3)C(=O)O[C@]12C (stereo partly shown) [FSM-56216] | 2 µg/mL (≈ 2.19 µM) | 32 µg/mL (≈ 35.1 µM) | > 32 µg/mL | > 32 µg/mL | 1 µg/mL (≈ 1.1 µM) | > 32 µg/mL | 32 µg/mL (≈ 35.1 µM) | > 32 µg/mL | > 32 µg/mL | 16 µg/mL (≈ 17.6 µM) | 32 µg/mL (≈ 35.1 µM) | 32 µg/mL (≈ 35.1 µM) | 8 µg/mL (≈ 8.78 µM) | 8 µg/mL (≈ 8.78 µM) | 4 µg/mL (≈ 4.39 µM) | 16 µg/mL (≈ 17.6 µM) |
| CC[C@H]1OC(=O)[C@H](C)C(=O)[C@H](C)[C@@H](O[C@@H]2OC(C)CC(N(C)C)C2O)[C@](C)(OC)C[C@@H](C)CN[C@H](Cc2ccccc2)[C@H]2N(CCCCn3cc(-c4cccc(N)c4)nn3)C(=O)O[C@]12C (stereo partly shown) [FSM-60353] | ≤ 0.0625 µg/mL | 1 µg/mL (≈ 1.11 µM) | 32 µg/mL (≈ 35.4 µM) | 32 µg/mL (≈ 35.4 µM) | ≤ 0.0625 µg/mL | 32 µg/mL (≈ 35.4 µM) | 0.5 µg/mL (≈ 0.553 µM) | > 32 µg/mL | > 32 µg/mL | 0.5 µg/mL (≈ 0.553 µM) | 0.5 µg/mL (≈ 0.553 µM) | 32 µg/mL (≈ 35.4 µM) | 8 µg/mL (≈ 8.85 µM) | 0.25 µg/mL (≈ 0.276 µM) | 2 µg/mL (≈ 2.21 µM) | 8 µg/mL (≈ 8.85 µM) |
| CC[C@H]1OC(=O)[C@H](C)C(=O)[C@H](C)[C@@H](O[C@@H]2OC(C)CC(N(C)C)C2O)[C@](C)(OC)C[C@@H](C)CN[C@H](Cc2cccc(Br)c2)[C@H]2N(CCCCn3cc(-c4cccc(N)c4)nn3)C(=O)O[C@]12C (stereo partly shown) [FSM-60415] | 0.5 µg/mL (≈ 0.509 µM) | 4 µg/mL (≈ 4.07 µM) | 32 µg/mL (≈ 32.6 µM) | 32 µg/mL (≈ 32.6 µM) | 0.5 µg/mL (≈ 0.509 µM) | > 32 µg/mL | 2 µg/mL (≈ 2.03 µM) | > 32 µg/mL | > 32 µg/mL | 2 µg/mL (≈ 2.03 µM) | 2 µg/mL (≈ 2.03 µM) | > 32 µg/mL | > 32 µg/mL | 2 µg/mL (≈ 2.03 µM) | 8 µg/mL (≈ 8.14 µM) | 32 µg/mL (≈ 32.6 µM) |
| CC[C@H]1OC(=O)[C@H](C)C(=O)[C@H](C)[C@@H](O[C@@H]2OC(C)CC(N(C)C)C2O)[C@](C)(OC)C[C@@H](C)CN[C@H](C)[C@H]2N(C/C=C/Cn3cc(-c4ccccn4)nn3)C(=O)O[C@]12C (stereo partly shown) [FSM-70153] | 0.125 µg/mL (≈ 0.154 µM) | 4 µg/mL (≈ 4.93 µM) | > 32 µg/mL | > 32 µg/mL | ≤ 0.0625 µg/mL | 16 µg/mL (≈ 19.7 µM) | 1 µg/mL (≈ 1.23 µM) | > 32 µg/mL | > 32 µg/mL | 4 µg/mL (≈ 4.93 µM) | 2 µg/mL (≈ 2.46 µM) | 4 µg/mL (≈ 4.93 µM) | 2 µg/mL (≈ 2.46 µM) | 0.25 µg/mL (≈ 0.308 µM) | 0.5 µg/mL (≈ 0.616 µM) | 2 µg/mL (≈ 2.46 µM) |
| CN(C)c1ccc(O)c2c1C[C@H]1C[C@H]3[C@H](N(C)C)C(O)=C(C(N)=O)C(=O)[C@@]3(O)C(O)=C1C2=O [Minocycline, minocycline, reference compound] | 8 µg/mL (≈ 17.5 µM) | 16 µg/mL (≈ 35 µM) | 8 µg/mL (≈ 17.5 µM) | 8 µg/mL (≈ 17.5 µM) | 0.25 µg/mL (≈ 0.546 µM) | 0.5 µg/mL (≈ 1.09 µM) | 0.25 µg/mL (≈ 0.546 µM) | 16 µg/mL (≈ 35 µM) | 2 µg/mL (≈ 4.37 µM) | 0.5 µg/mL (≈ 1.09 µM) | 0.25 µg/mL (≈ 0.546 µM) | 1 µg/mL (≈ 2.19 µM) | 0.5 µg/mL (≈ 1.09 µM) | 8 µg/mL (≈ 17.5 µM) | 4 µg/mL (≈ 8.74 µM) | 8 µg/mL (≈ 17.5 µM) |
